One data set concerns Capan-1 tumors. The data set can be described thus: CL2 vs CL2A linker, Capan-1 xenograft. In kind it is in vivo, mice. The note with it: 0.2 mg/kg SN-38 twice weekly × 4 weeks. The method, then:
FIG. 4C. […] Capan-1 mice (N=10) were treated with 0.2 mg/kg ADC and tumors measured weekly.

Another data set concerns p21^Waf1/Cip1 in Calu-3. The data set is described as follows: p21Waf1/Cip1 expression. Type of data set: cell-based, human. The text has this: SN-38 is known to activate several signaling pathways in cells, leading to apoptosis (e.g., Cusack et al., 2001, Cancer Res 61:3535-40; Liu et al. 2009, Cancer Lett 274:47-53; Lagadec et al., 2008, Br J Cancer 98:335-44). Our initial studies examined the expression of 2 proteins involved in early signaling events (p21^Waf1/Cip1 and p53) and 1 late apoptotic event [cleavage of poly-ADP-ribose polymerase (PARP)] in vitro (not shown).

The test system of data set [1] is triple-negative breast cancer. The following applies: 58 evaluable mTNBC patients, RECIST1.1 (Bardia et al.); cited from earlier work.
Data set [2] relates to metastatic pancreatic cancer. The data set can be described thus: Phase I/II clinical trial of IMMU-132, PDC. Type of data set: in vivo, human.
The nature of data set [3]: tolerability in Swiss-Webster mice. The following applies: normal mice, over 1 week.
The test system of the next data set is HCC1806 (Trop-2+). The data set is described as follows: dsDNA breaks, rH2AX flow cytometry. The following applies: untreated baseline 168. In kind it is cell-based, human. A general note: A flow cytometer gives signals particle by particle.
A further data set concerns NCI-N87-S-120 tumors. The data set is described as follows: SN-38-resistant xenograft therapy. The note with it: IMMU-132 0.5 mg twice weekly ×4 weeks; irinotecan 40 mg/kg q2dx5.

Procedure for HCC1806 (Trop-2+): For drug activity testing, HCC1806 and HCC1395 TNBC cell lines cells were seeded in 6-well plates at 5×10^5 cells/well and held at 37° C. overnight. […] The signal intensity of rH2AX was measured by flow cytometry using a BD FACSCalibur (BD Biosciences, San Jose, Calif.).
The cells were then washed to remove unbound conjugate, and then incubated overnight at 37° C.
Procedure for NCI-N87-S-120 tumors: Mice were euthanized once tumors grew to >1.0 cm^3 in size.
NCr female athymic nude (nu/nu) mice, 4 weeks old, were purchased from Taconic Farms. […] Tumor volume (TV) was determined by measurements in two dimensions using calipers, with volumes defined as: L×w^2/2, where L is the longest dimension of the tumor and w the shortest. […] Control mice received each agent alone. […] Mice were euthanized and deemed to have succumbed to disease once tumors grew to >1.0 cm^3 in size.

As to IMMU-132, the “mice tumor-free at end of study (day 140)” value in the data set on Capan-1 tumors is 50%. The “p21^Waf1/CiP1 expression over free SN-38” value with p21^Waf1/Cip1 in Calu-3 is “more than 2 fold”. Further, the “interim objective response rate” value in data set [1] was 31%. In addition, the “decrease in serum CA19-9 titers” value in data set [2] (3 patients with stable disease) lay within 23 to 72%. Further, in data set [2] (8 patients), the “duration of stable disease, range” value is listed as 8 to 21.4 wks. In addition, the stable disease in data set [2] (13 CT-assessable PDC patients) is given as 62%. Besides, the “median TTP / duration of SD” value in data set [2] (CT-assessable PDC patients, 8.0 weeks in last prior therapy) came out at 12.7 wks. Moreover, the “TTP, range” value in data set [2] (PDC patients) lay within 2 to 21.4 wks. Further, in data set [2] (Phase I, N=7), the “time to progression, range” value was 1.0 to 4.0 months. Moreover, the “median TTP” value in data set [2] (all 14 PDC patients) turned out to be 11.9 wks. Moreover, the “cumulative dose without acute toxicity” value in data set [3] is listed as 24 mg/kg SN-38. Also, in the data set with HCC1806 (Trop-2+), the “Median fluorescence intensity (rH2AX)” value stood at 546. Further, in the data set with NCI-N87-S-120 tumors, the survival benefit entry is recorded as “no significant survival benefit”.

The values are drawn from US10954305B2 (Immunomedics, Inc., priority 2016, dated 2021).
